# Measured values published in paper PMC11329753, “Human mitochondrial carriers of the SLC25 family function as monomers exchanging substrates with a ping-pong kinetic mechanism” (The EMBO Journal, 2024).
# B1: human mitochondrial aspartate/glutamate carrier 2 (natural protein, UniProt Q9UJS0 1-675, looked up)
# chain: MAAAKVALTKRADPAELRTIFLKYASIEKNGEFFMSPNDFVTRYLNIFGESQPNPKTVELLSGVVDQTKDGLISFQEFVAFESVLCAPDALFMVAFQLFDKAGKGEVTFEDVKQVFGQTTIHQHIPFNWDSEFVQLHFGKERKRHLTYAEFTQFLLEIQLEHAKQAFVQRDNARTGRVTAIDFRDIMVTIRPHVLTPFVEECLVAAAGGTTSHQVSFSYFNGFNSLLNNMELIRKIYSTLAGTRKDVEVTKEEFVLAAQKFGQVTPMEVDILFQLADLYEPRGRMTLADIERIAPLEEGTLPFNLAEAQRQKASGDSARPVLLQVAESAYRFGLGSVAGAVGATAVYPIDLVKTRMQNQRSTGSFVGELMYKNSFDCFKKVLRYEGFFGLYRGLLPQLLGVAPEKAIKLTVNDFVRDKFMHKDGSVPLAAEILAGGCAGGSQVIFTNPLEIVKIRLQVAGEITTGPRVSALSVVRDLGFFGIYKGAKACFLRDIPFSAIYFPCYAHVKASFANEDGQVSPGSLLLAGAIAGMPAASLVTPADVIKTRLQVAARAGQTTYSGVIDCFRKILREEGPKALWKGAGARVFRSSPQFGVTLLTYELLQRWFYIDFGGVKPMGSEPVPKSRINLPAPNPDHVGGYKLAVATFAGIENKFGLYLPLFKPSVSTSKAIGGGP
# notes: human aspartate/glutamate carrier 2 (AGC2, SLC25A13), UniProt Q9UJS0; TEV site between the His8 tag and the protein; protomers printed as 74 kDa each; also called AGC2; SLC25A13; not shown: His8, N-terminal, cleaved
# Assays:
# [1] = target: T1, human aspartate/glutamate carrier 2 (AGC2, SLC25A13) (Homo sapiens, UniProt Q9UJS0); assay: nanoDSF thermal shift; assay type: binding; settings: 10 mM aspartate; 20 mM HEPES pH 7.0, 50 mM NaCl, cardiolipin/LMNG; apo Tm 55.4 °C
# T1 construct: N-terminal His8 tag with TEV site, tag removed by TEV cleavage; codon-optimized, expressed in Saccharomyces cerevisiae W303.1B mitochondria; purified in LMNG/cardiolipin; 74 kDa protomer, homodimer via N-terminal domains
# T1 sequence (Q9UJS0 2-675): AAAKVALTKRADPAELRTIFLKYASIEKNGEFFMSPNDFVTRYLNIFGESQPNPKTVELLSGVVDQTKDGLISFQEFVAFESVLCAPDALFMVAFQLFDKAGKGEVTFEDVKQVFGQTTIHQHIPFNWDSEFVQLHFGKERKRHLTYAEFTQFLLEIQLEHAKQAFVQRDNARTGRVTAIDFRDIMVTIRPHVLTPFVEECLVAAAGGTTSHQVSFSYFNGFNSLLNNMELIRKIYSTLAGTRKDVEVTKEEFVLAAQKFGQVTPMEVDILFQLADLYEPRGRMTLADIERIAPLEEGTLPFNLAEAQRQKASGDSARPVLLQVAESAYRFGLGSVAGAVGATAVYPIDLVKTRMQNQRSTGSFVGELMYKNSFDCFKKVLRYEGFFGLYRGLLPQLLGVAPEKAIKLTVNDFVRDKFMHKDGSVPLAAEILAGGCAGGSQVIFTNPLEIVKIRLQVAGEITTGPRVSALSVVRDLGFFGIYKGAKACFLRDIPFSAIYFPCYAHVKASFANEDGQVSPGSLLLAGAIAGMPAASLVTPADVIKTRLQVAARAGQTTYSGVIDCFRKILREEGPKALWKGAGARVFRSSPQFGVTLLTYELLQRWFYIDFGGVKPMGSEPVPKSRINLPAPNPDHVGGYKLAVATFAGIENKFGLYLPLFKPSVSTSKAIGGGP
# [2] = target: T1, human aspartate/glutamate carrier 2 (AGC2, SLC25A13); assay: […]-aspartate uptake into proteoliposomes, homo-exchange, Michaelis-Menten fit; assay type: biochemical; settings: labelled compound; internal aspartate 0.10-1.00 mM, external 1.5-25 μM; 20 mM HEPES pH 7.4, 50 mM NaCl, 1 mM CaCl2
# [3] = target: human citrate carrier (CIC, SLC25A1) (Homo sapiens, UniProt P53007); settings: labelled compound; internal citrate 0.10-1.00 mM, external 1.0-25 μM; 20 mM HEPES pH 7.0, 50 mM NaCl, 5 mM MgCl2
# [4] = target: T2, human oxoglutarate carrier (OGC, SLC25A11) (Homo sapiens, UniProt Q02978); assay: nanoDSF thermal shift; assay type: binding; settings: 10 mM malate; 20 mM HEPES pH 7.0, 50 mM NaCl, cardiolipin/LMNG; apo Tm 51.0 °C
# T2 construct: residues 2-13 deleted; N-terminal His8 tag with factor Xa site, tag removed by on-column Xa cleavage; codon-optimized, expressed in Saccharomyces cerevisiae W303.1B mitochondria; purified in LMNG/cardiolipin; 33,477 Da; monomer
# T2 sequence (Q02978 14-314): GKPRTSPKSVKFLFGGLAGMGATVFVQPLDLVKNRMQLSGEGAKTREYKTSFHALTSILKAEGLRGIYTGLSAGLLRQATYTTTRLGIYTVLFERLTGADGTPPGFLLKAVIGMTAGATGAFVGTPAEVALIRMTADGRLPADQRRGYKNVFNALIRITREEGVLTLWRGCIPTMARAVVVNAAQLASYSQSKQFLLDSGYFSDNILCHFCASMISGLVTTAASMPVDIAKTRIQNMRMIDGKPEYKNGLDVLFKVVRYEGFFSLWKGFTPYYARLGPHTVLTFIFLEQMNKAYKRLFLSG
# [5] = target: T3, human dicarboxylate carrier (DIC, SLC25A10) (Homo sapiens, UniProt Q9UBX3, INS1GKP); assay: nanoDSF thermal shift; assay type: binding; settings: 10 mM malate; 20 mM HEPES pH 7.0, 50 mM NaCl, cardiolipin/LMNG; apo Tm 54.1 °C
# T3 construct: GKP added at positions 2-4; N-terminal His8 tag with factor Xa site, tag removed by on-column Xa cleavage; codon-optimized, expressed in Saccharomyces cerevisiae BJ2168 mitochondria; purified in LMNG/cardiolipin; 31,923 Da; monomer
# T3 sequence (Q9UBX3 with tags, fused parts or gaps INS1GKP): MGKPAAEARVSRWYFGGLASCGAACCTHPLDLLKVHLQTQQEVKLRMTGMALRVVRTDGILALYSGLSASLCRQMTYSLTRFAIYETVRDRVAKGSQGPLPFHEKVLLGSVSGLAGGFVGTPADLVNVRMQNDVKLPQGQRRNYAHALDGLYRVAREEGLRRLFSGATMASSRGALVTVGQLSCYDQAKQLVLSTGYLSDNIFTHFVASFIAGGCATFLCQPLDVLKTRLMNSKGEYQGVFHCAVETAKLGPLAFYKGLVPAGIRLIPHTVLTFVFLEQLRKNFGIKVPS
# [6] = target: T2, human oxoglutarate carrier (OGC, SLC25A11); assay: […]-malate uptake into proteoliposomes, homo-exchange, Michaelis-Menten fit; assay type: biochemical; settings: labelled compound; internal malate 0.10-1.00 mM, external 0.5-20 μM; 20 mM HEPES pH 7.0, 50 mM NaCl, 5 mM MgCl2
# [7] = target: the molecule itself; assay: SEC; 150 μL of purified carrier on Superdex 200 Increase 10/300 in buffer B (20 mM HEPES pH 7.0, 50 mM NaCl, 0.1 mg/mL tetraoleoyl cardiolipin/0.1% (w/v) lauryl maltose neopentyl glycol); sized against ferritin, aldolase, conalbumin and ovalbumin; total weight corrected for bound lipid/detergent (≈135 kDa)
# Sequence of human citrate carrier (CIC, SLC25A1) (P53007 13-311): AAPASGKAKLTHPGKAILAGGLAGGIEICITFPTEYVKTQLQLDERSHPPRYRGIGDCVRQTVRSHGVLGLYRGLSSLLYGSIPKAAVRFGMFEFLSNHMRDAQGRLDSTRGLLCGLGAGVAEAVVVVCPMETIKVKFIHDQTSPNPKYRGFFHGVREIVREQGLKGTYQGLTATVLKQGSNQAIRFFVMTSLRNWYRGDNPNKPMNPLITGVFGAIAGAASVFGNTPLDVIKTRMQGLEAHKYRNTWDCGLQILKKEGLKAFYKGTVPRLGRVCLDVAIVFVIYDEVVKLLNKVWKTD
molecule,measurement,setting,value
N[C@@H](CC(=O)O)C(=O)O [aspartate],thermal shift,[1],1.6 °C
same,apparent Km,[2],"chemical gradients for (C) OGC, (F) CIC, (I) DIC, and (L) AGC2"
O=C(O)CC(O)(CC(=O)O)C(=O)O [citrate],apparent Km,[3],"Km plotted against Vmax for the various chemical gradients for (C) OGC, (F) CIC"
O=C(O)C[C@H](O)C(=O)O [malate],thermal shift,[4],5.6 °C
same,thermal shift,[5],2.5 °C
same,apparent Km,[6],Km plotted against Vmax for the various chemical gradients for (C) OGC
B1,stoichiometry N,[7],2
